The values below come from patent US20040138278A1, “Use of AT1 receptor antagonists for prevention of subsequent strokes” (Solvay Pharmaceuticals GmbH, priority 2002, published 2004).

Test [1] concerns hypertensive and nonhypertensive stroke patients. The following applies: cited from earlier work.
The subject of test [2] is hypertensive patients after cerebral ischemia, transitory ischemic attack or intracerebral hemorrhage. Description: Prospective, randomized clinical study (PROBE design) of eprosartan versus nitrendipine for prevention of subsequent strokes, interim report. The following applies: for incidence of subsequent cerebrovascular events / number of subsequent cerebrovascular events: interim report, 179 patients eprosartan group, 158 patients nitrendipine group, average observation period 18.4 / 18.3 months; for number of subsequent cerebrovascular events: start 600 mg eprosartan once daily or 10 mg nitrendipine q.d. It counts as in vivo, human. From the text:
A clinical study is currently being conducted on 1369 patients, investigating the suitability of antihypertensive agents of various pharmacological classes to reduce a patient's risk of suffering a subsequent stroke.
Of the 1369 patients (male/female), 691 patients received the AT1-receptor antagonist eprosartan (as eprosartan mesylate); 678 of the 1369 patients received the calcium antagonist nitrendipine.
The study is being conducted as a prospective, randomized, controlled and multicentric study and corresponds to the PROBE design (=prospective, randomized, open-blinded endpoint). The primary target criterion is the evaluation of the total mortality and the total number of cardiovascular and cerebrovascular events (strokes) in the sense of this invention.
The subsequent efficacy parameter is the change in mental abilities (evaluated on the basis of neurological findings, Barthel index and Rankin scale). In addition, the change in the average blood pressure over a period of time is evaluated in measurements performed on the patients sitting down in the office as well as in ambulatory 24-hour blood pressure measurements.
The study begins within 24 months after the occurrence of cerebral ischemia or an intracerebral hemorrhage in a patient. The patients are observed for up to four years. The essential prerequisite for including a patient in the study is hypertension requiring treatment and the condition following a cerebral ischemia, a transitory ischemic attack or an intracerebral hemorrhage within the last 24 months. Essential exclusion criteria include an occlusion or stenosis of greater than 70% of the internal carotid artery (ICA), manifest cardiac insufficiency (NYHY [sic; NYHA] class III-IV), age of patient greater than 85 years at the time of the cerebrovascular event, anticoagulant therapy for a patient because of cardiac arrhythmia, high-grade aortic or mitral valve stenosis, unstable angina pectoris or a known hypersensitivity to AT1-receptor antagonists or calcium antagonists of the dihyropyridine type or chemically related substances.
After inclusion in the study, the patients begin the randomized treatment phase with eprosartan or nitrendipine. Depending on the blood pressure readings and patient-specific criteria, treatment begins with 600 mg eprosartan once daily or 10 mg nitrendipine q.d. For long-term therapy, a diastolic blood pressure of less than 90 mmHg sitting down and a systolic blood pressure of less than 140 mmHg are the goals. For the 24-hour blood pressure measurements, a daily average of less than or equal to 135/85 mmHg is the goal. If additional antihypertensive therapy is necessary, conventional recognized criteria such as those recommended by the German Hypertension League are followed in the combination therapy. Combination therapy with ACE inhibitors, AT1-receptor antagonists or calcium antagonists should not be used.
Study end points (target criteria) are transmitted immediately to the central study office, where they are treated as open-blind results with respect to the medication and then forwarded to the End Point Committee. The committee performs the evaluation and classification of the findings with regard to a cardiovascular or cerebrovascular end point.
In an interim report on this study, the data on a total of 337 of the participating patients has been evaluated; 179 of these 337 patients received eprosartan (eprosartan group) and 158 of these 337 patients received nitrendipine (nitrendipine group). […]

For `CCC[C@H](N[C@@H](C)C(=O)N1[C@H](C(=O)O)C[C@@H]2CCCC[C@@H]21)C(=O)OCC` [ACE monotherapy, perindopril], the “blood pressure of patients” value in test [1] (hypertensive group) is reported as “lowered to a comparable extent”. In test [1] (subgroup of hypertensive patients, versus placebo patient group), the “risk of suffering a subsequent stroke” value is given as “did not differ from the corresponding risk in the placebo patient group”.

On to `CCCCc1ncc(/C=C(\Cc2cccs2)C(=O)O)n1Cc1ccc(C(=O)O)cc1.CS(=O)(=O)O` [eprosartan, (E)-α-[[2-butyl-1-[(4-carboxyphenyl)methyl]-1H-imidazol-5-yl]-methylene]-2-thiophenepropanoic acid monomethanesulfonate], for which, in test [2], the “incidence of subsequent cerebrovascular events” value worked out at 8.4% and the “number of subsequent cerebrovascular events” value worked out at 15. For the same molecule, in test [2] (monotherapy, conclusion from the interim clinical findings), the “reduction in a patient's risk of having a subsequent stroke” value is “significant reduction”.

On to `CCOC(=O)C1=C(C)NC(C)=C(C(=O)OC)C1c1cccc([N+](=O)[O-])c1` (stereo not shown) [nitrendipine], for which, in test [2], the “incidence of subsequent cerebrovascular events” value stood at 13.9% and the “number of subsequent cerebrovascular events” value is 22.
